Assay results published in ChEMBL document CHEMBL1201862, “PubChem BioAssay data set” (2004).
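These data come from cells grown in 96-well plates and exposed to compound for 48 hours at five concentrations. GI50 = concentration required for 50% inhibition of growth.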 Activity calls are given as the source filed them. No stated cut-off is given here; in the data, active = GI50 up to about 1.1 µM and inactive = higher.

Legend:
Assay in all cases: NCI tumour cell line growth inhibition, 48 h
[1] = tested on: 786-0
[2] = tested on: A498
[3] = tested on: A549
[4] = tested on: ACHN
[5] = tested on: BT-549
[6] = tested on: CAKI-1
[7] = tested on: CCRF-CEM
[8] = tested on: COLO 205
[9] = tested on: DU-145
[10] = tested on: EKVX
[11] = tested on: HCC 2998
[12] = tested on: HCT-116
[13] = tested on: HCT-15
[14] = tested on: HL-60
[15] = tested on: HOP-92
[16] = tested on: HT-29
[17] = tested on: Hs-578T
[18] = tested on: IGROV-1
[19] = tested on: K562
[20] = tested on: KM12
[21] = tested on: LOX IMVI
[22] = tested on: M14
[23] = tested on: MCF7
[24] = tested on: MDA-MB-231
[25] = tested on: MDA-MB-435
[26] = tested on: MDA-N
[27] = tested on: MOLT-4
[28] = tested on: Malme-3M
[29] = tested on: NCI-H226
[30] = tested on: NCI-H23
[31] = tested on: NCI-H460
[32] = tested on: NCI-H522
[33] = tested on: NCI/ADR-RES
[34] = tested on: OVCAR-4
[35] = tested on: OVCAR-5
[36] = tested on: OVCAR-8
[37] = tested on: RPMI-8226
[38] = tested on: RXF 393
[39] = tested on: SF-268
[40] = tested on: SF-295
[41] = tested on: SF-539
[42] = tested on: SK-MEL-28
[43] = tested on: SK-MEL-5
[44] = tested on: SK-OV-3
[45] = tested on: SN12C
[46] = tested on: SNB-19
[47] = tested on: SNB-75
[48] = tested on: SR
[49] = tested on: SW-620
[50] = tested on: T47D
[51] = tested on: TK-10
[52] = tested on: U-251
[53] = tested on: UACC-257
[54] = tested on: UACC-62
[55] = tested on: UO-31
[56] = tested on: HOP-62
[57] = tested on: OVCAR-3
[58] = tested on: PC-3
[59] = tested on: SK-MEL-2

## NNC(=O)c1ccccc1NC(=O)/C(=C/c1ccccc1O)NC(=O)c1ccccc1
[1]
  GI50: 16.3 µM (inactive)
[2]
  GI50: 94.6 µM (inactive)
[3]
  GI50: > 100 µM (inactive)
[4]
  GI50: 17.9 µM (inactive)
[5]
  GI50: 31.8 µM (inactive)
[6]
  GI50: 12.9 µM (inactive)
[7]
  GI50: > 100 µM (inactive)
[8]
  GI50: > 100 µM (inactive)
[9]
  GI50: > 100 µM (inactive)
[10]
  GI50: 33.6 µM (inactive)
[11]
  GI50: 10.9 µM (inactive)
[12]
  GI50: 88.3 µM (inactive)
[13]
  GI50: 21.7 µM
[14]
  GI50: > 100 µM (inactive)
[15]
  GI50: 38.9 µM (inactive)
[16]
  GI50: > 100 µM (inactive)
[17]
  GI50: 14.7 µM (inactive)
[18]
  GI50: 14.5 µM (inactive)
[19]
  GI50: > 100 µM (inactive)
[20]
  GI50: 5.62 µM (inactive)
[21]
  GI50: 47.1 µM (inactive)
[22]
  GI50: 55.6 µM (inactive)
[23]
  GI50: 5.07 µM (inactive)
[24]
  GI50: 20.3 µM (inactive)
[25]
  GI50: 57.7 µM (inactive)
[26]
  GI50: 4.56 µM (inactive)
[27]
  GI50: > 100 µM (inactive)
[28]
  GI50: 25.4 µM (inactive)
[29]
  GI50: 26.5 µM (inactive)
[30]
  GI50: 38.4 µM (inactive)
[31]
  GI50: 22.8 µM (inactive)
[32]
  GI50: 13.4 µM (inactive)
[33]
  GI50: 15.6 µM (inactive)
[34]
  GI50: 27.3 µM (inactive)
[35]
  GI50: > 100 µM (inactive)
[36]
  GI50: 18.1 µM (inactive)
[37]
  GI50: > 100 µM (inactive)
[38]
  GI50: 63 µM (inactive)
[39]
  GI50: 12.8 µM (inactive)
[40]
  GI50: 44.8 µM (inactive)
[41]
  GI50: 20.1 µM (inactive)
[42]
  GI50: > 100 µM (inactive)
[43]
  GI50: 72.3 µM (inactive)
[44]
  GI50: 39.7 µM (inactive)
[45]
  GI50: 28 µM (inactive)
[46]
  GI50: 24.1 µM (inactive)
[47]
  GI50: 11.6 µM (inactive)
[48]
  GI50: 0.0156 µM (active)
[49]
  GI50: > 100 µM (inactive)
[50]
  GI50: 11.5 µM (inactive)
[51]
  GI50: > 100 µM (inactive)
[52]
  GI50: 33.6 µM (inactive)
[53]
  GI50: > 100 µM (inactive)
[54]
  GI50: 67.1 µM (inactive)
[55]
  GI50: 11.9 µM (inactive)

## Cc1ccsc1/C=N/Nc1cnccn1
[1]
  GI50: > 100 µM (inactive)
[2]
  GI50: 62.4 µM (inactive)
[3]
  GI50: > 100 µM (inactive)
[4]
  GI50: > 100 µM (inactive)
[5]
  GI50: > 100 µM (inactive)
[6]
  GI50: > 100 µM (inactive)
[7]
  GI50: > 100 µM (inactive)
[8]
  GI50: > 100 µM (inactive)
[9]
  GI50: > 100 µM (inactive)
[10]
  GI50: 63.5 µM (inactive)
[11]
  GI50: > 100 µM (inactive)
[12]
  GI50: > 100 µM (inactive)
[13]
  GI50: > 100 µM
[14]
  GI50: 35.9 µM (inactive)
[56]
  GI50: > 100 µM (inactive)
[15]
  GI50: > 100 µM (inactive)
[16]
  GI50: 76.9 µM (inactive)
[17]
  GI50: > 100 µM (inactive)
[18]
  GI50: 40.1 µM (inactive)
[19]
  GI50: > 100 µM (inactive)
[20]
  GI50: 99.5 µM (inactive)
[21]
  GI50: 76.4 µM (inactive)
[22]
  GI50: > 100 µM (inactive)
[23]
  GI50: 3.53 µM (inactive)
[24]
  GI50: > 100 µM (inactive)
[25]
  GI50: > 100 µM (inactive)
[27]
  GI50: 78.7 µM (inactive)
[28]
  GI50: > 100 µM (inactive)
[29]
  GI50: > 100 µM (inactive)
[30]
  GI50: > 100 µM (inactive)
[33]
  GI50: > 100 µM (inactive)
[57]
  GI50: > 100 µM (inactive)
[34]
  GI50: > 100 µM (inactive)
[35]
  GI50: 94 µM (inactive)
[36]
  GI50: 27.4 µM (inactive)
[58]
  GI50: > 100 µM (inactive)
[37]
  GI50: > 100 µM (inactive)
[38]
  GI50: > 100 µM (inactive)
[39]
  GI50: > 100 µM (inactive)
[40]
  GI50: > 100 µM (inactive)
[42]
  GI50: > 100 µM (inactive)
[59]
  GI50: > 100 µM (inactive)
[43]
  GI50: > 100 µM (inactive)
[44]
  GI50: > 100 µM (inactive)
[45]
  GI50: > 100 µM (inactive)
[46]
  GI50: > 100 µM (inactive)
[47]
  GI50: > 100 µM (inactive)
[49]
  GI50: > 100 µM (inactive)
[50]
  GI50: > 100 µM (inactive)
[51]
  GI50: > 100 µM (inactive)
[52]
  GI50: > 100 µM (inactive)
[53]
  GI50: > 100 µM (inactive)
[54]
  GI50: > 100 µM (inactive)
[55]
  GI50: > 100 µM (inactive)
